Reference: US20170066717A1, “NEW PHENYLAZETIDINECARBOXYLATE OR -CARBOXAMIDE COMPOUNDS” (INVENTIVA, priority 2014, published 2017)

Tests used:
[1] = system: mice treated with 1-methyl-4-phenyl-1,2,3,6-tetrahydropyridine (MPTP); test: Functional activity in a model of mice treated with MPTP (striatal dopamine, TH mRNA in substantia nigra); assay type: in vivo; conditions: for action of MPTP (decrease in dopamine level in the striatum and in TH expression level in the substantia nigra): C57BL6/J mice, compound orally twice a day for 11 days, MPTP 20 mg/kg ip once a day for 5 days, FIGS. 1 and 2
Experimental: 3. Study of the Functional Activity in a Mouse Model
A third series of […] tests was carried out with the compounds according to the invention, for the purpose of verifying that the molecules indeed have the expected neuroprotective effect.
The compounds of examples 10 and 118 were tested on a model of mice treated with 1-methyl-4-phenyl-1,2,3,6-tetrahydropyridine (MPTP) in order to confirm their potential activity. MPTP is a neurotoxin which causes the permanent symptoms of Parkinson's disease by destroying the dopaminergic neurons in the substantia nigra. The following protocol: was used.
Male C57BL6/J mice, 10-12 weeks old at the beginning of the studies, were divided up into groups of 12 animals. The compounds wee administered orally, twice a day, for 11 days in total. The administration began 3 days before the treatment with the MPTP toxin at 20 mg/kg. The MPTP was administered once a day by intraperitoneal injection, for 5 days. The admistration of the compounds was continued during the 5 days of MPTP treatment and then for a further 3 days after the MPTP treatment. One group of mice received, orally, the carrier alone (solution of methylcellulose at 1%, 0.1% poloxamer). The annuals were eythanized after rhe final gavage and the striatum and the substantia nigra were removed. The dopamine was extracted from the striatum and the amount of dopamine (DA), expressed in ng per g of striatum (mean±SEM), was measured by high-performance liquid chromatography (HPLC) with electrochemical detection. The messenger RNAs were isolated from the substantia nigra, and the expression level of the mRNAs encoding tyrosine hydroxylase (TH) was measured by quantitative PCR.
The results obtained were reported in appended FIGS. 1 and 2.

[2] = system: dopaminergic neurons of primary culture of rat embryo mesencephalon treated with MPP+; test: Neuroprotection in primary culture of rat embryo mesencephalon treated with MPP+ (count of tyrosine hydroxylase expressing cells); assay type: cell-based; conditions: recombinant human BDNF 10 ng/mL = 100%, 2 days with MPP+
Outline: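 Rat embryo (E15) mesencephalon cultures, 5 days, then MPP+ with or without compound on day 6 for 2 days. Tyrosine hydroxylase-immunolabelled cells counted by image analysis; activity expressed as percent of recombinant human BDNF (10 ng/mL) reference, set at 100%.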

| Structure (SMILES) | action of MPTP (decrease in dopamine level in the striatum and in TH expression level in the substantia nigra) [1] | percentage of activity relative to the BDNF reference ([2]; compound 1 μM) [%] | percentage of activity relative to the BDNF reference ([2]; compound 10 μM) [%] | tyrosine hydroxylase (TH) expression level (mRNA, substantia nigra, quantitative PCR) ([1]; orally twice a day for 11 days, MPTP-treated mice) |
| --- | --- | --- | --- | --- |
| CC1(C)CCC(C)(C)c2cc(-c3cccc(N4CC(C(=O)O)C4)c3)ccc21 [Example 10, 1-[5-(1,1,4,4-tetrametyltetralin-6-yl)phenyl]azetidine-3-carboxylic acid] | decrease the action of MPTP in a dose-dependent manner | 44 | 74 |  |
| CC(C)CC1CN(c2cccc(N3CC(C(=O)O)C3)c2)c2ccc(C(F)(F)F)cc2O1 (stereo not shown) [Example 118, 1-[3-[2-isobutyl-7-(trilfuoromethyl)-2,3-dihydro-1,4-benzoxazin-4-yl]phenyl]azetidine-3-carboxylic acid] | decrease the action of MPTP in a dose-dependent manner | 81 | 61 | capable of re-establishing the tyrosine hydroxylase expression level in the brain |
